According to US20260053861A1, “CELL COMPOSITIONS AND METHODS OF USING THE SAME” (THE REGENTS OF THE UNIVERSITY OF CALIFORNIA, priority 2022, published 2026):
Where a name gives a salt, the structure may show the parent alone. Read-outs that look alike come from different tables or passages of the source.

System: hPSC-SCs
[1] = HTS viability of hPSC-SCs in the presence of 30 mM glucose, Prestwick library, Table S4

Row | Compound | z.score.t [1] | z.score.t
1 | O=C(NCCN1CCOCC1)c1ccc(Cl)cc1 [Moclobemide] | 0.5822 | –
2 | CN1[C@@H]2CC[C@H]1C[C@@H](OC(=O)[C@H](CO)c1ccccc1)C2 [Hyoscyamine (L)] | – | −0.528
3 | CCc1cccc2c3c([nH]c12)C(CC)(CC(=O)O)OCC3 (centres unmarked) [Etodolac] | −0.139 | –
4 | O=C(O)CCc1nc(-c2ccccc2)c(-c2ccccc2)o1 [Oxaprozin] | 0.0827 | –
5 | CC(C)(C)NC(=O)[C@@H]1C[C@@H]2CCCC[C@@H]2CN1C[C@@H](O)[C@H](Cc1ccccc1)NC(=O)[C@H](CC(N)=O)NC(=O)c1ccc2ccccc2n1 [Saquinavir mesylate] | −0.3033 | –
6 | O=c1cc(-c2ccc(O)c(O)c2)oc2cc(O)cc(O)c12 [Luteolin] | −0.7945 | –
7 | O=[N+]([O-])c1cc([As](=O)(O)O)ccc1O [Roxarsone] | – | −0.751
8 | COc1cc2c(c(OC)c1OC)-c1ccc(OC)c(=O)cc1[C@@H](NC(C)=O)CC2 [Colchicine] | – | −1.804
9 | OCCN(CCO)c1nc(N2CCCCC2)c2nc(N(CCO)CCO)nc(N3CCCCC3)c2n1 [Dipyridamole] | −0.8392 | –
10 | C[C@]12C=CC(=O)C=C1CC[C@@H]1[C@@H]2[C@@H](O)C[C@@]2(C)[C@H]1CC[C@]2(O)C(=O)CO [Prednisolone] | 1.287 | –
11 | CCC(=O)O[C@]1(C(=O)CCl)[C@@H](C)C[C@H]2[C@@H]3CCC4=CC(=O)C=C[C@]4(C)[C@@]3(F)[C@@H](O)C[C@@]21C [Clobetasol propionate] | 1.323 | –
12 | CO[C@H](C)[C@](O)(C(=O)OCC1=CCN2CC[C@H](O)[C@@H]12)C(C)C [Heliotrine] | – | −0.3023
13 | CN1CCN(C(c2ccccc2)c2ccccc2)CC1 [Cyclizine hydrochloride] | 0.5437 | –
14 | COc1c2c(nc3ccccc13)OC(C(C)(O)CO)C2 (centres unmarked) [Dubinidine] | – | 0.6554
15 | CN(C(=O)C(Cl)Cl)c1ccc(OC(=O)c2ccco2)cc1 [Diloxanide furoate] | 1.069 | –
16 | CC#C[C@]1(O)CC[C@H]2[C@@H]3CCC4=CC(=O)CCC4=C3[C@@H](c3ccc(N(C)C)cc3)C[C@@]21C [Mifepristone] | −0.8392 | –
17 | CN(C)CCCN1c2ccccc2Sc2ccc(C(F)(F)F)cc21 [Triflupromazine hydrochloride] | −1.512 | –
18 | O=c1[nH]c2ccccc2n1C1CCN(CCCC(c2ccc(F)cc2)c2ccc(F)cc2)CC1 [Pimozide] | −1.173 | –
19 | CC(=O)N(CC(C)C(=O)O)c1c(I)cc(I)c(N)c1I (centres unmarked) [Iocetamic acid] | 0.9178 | –
20 | CCN1CCN(C(=O)N[C@@H](C(=O)N[C@@H]2C(=O)N3[C@@H]2SC(C)(C)[C@@H]3C(=O)O)c2ccccc2)C(=O)C1=O [Piperacillin sodium salt] | 0.8465 | –
21 | CN(C)CCCN1c2ccccc2Sc2ccc(Cl)cc21 [Chlorpromazine hydrochloride] | −1.622 | –
22 | COc1ccc(C(=O)NCc2cccnc2)cc1C(=O)NCc1cccnc1 [Picotamide monohydrate] | −0.04944 | –
23 | (S)-propranolol hydrochloride | 0.6803 | –
24 | COc1ccccc1N1CCN(CC(O)COc2cccc3ccccc23)CC1 (centres unmarked) [Naftopidil dihydrochloride] | −0.9264 | –
25 | Cc1onc(-c2c(Cl)cccc2Cl)c1C(=O)N[C@@H]1C(=O)N2[C@@H]1SC(C)(C)[C@@H]2C(=O)O [Dicloxacillin sodium salt] | 1.942 | –
26 | CN1[C@@H]2CC[C@H]1C[C@@H](OC(=O)C(CO)c1ccccc1)C2 (some centres unmarked) [Atropine sulfate monohydrate] | – | −0.9654
27 | CC(C)(O/N=C(\C(=O)N[C@@H]1C(=O)N2C(C(=O)[O-])=C(C[n+]3ccccc3)CS[C@H]12)c1csc(N)n1)C(=O)O [Ceftazidime pentahydrate] | 0.563 | –

Row | Compound | z.score.t [1] | z.score.t
28 | COc1cc(-c2ccc(=O)[nH]n2)ccc1OC(F)F [Zardaverine] | −1.128 | –
29 | CC(C)NCC(O)c1ccc(NS(C)(=O)=O)cc1 (centres unmarked) [Sotalol hydrochloride] | −1.056 | –
30 | O=C(O)/C=C/c1ccc(O)c(O)c1 [Caffeic acid] | 0.9865 | –
31 | C[N+]1(C)CCC(OC(=O)C(O)(c2ccccc2)C2CCCC2)C1 (centres unmarked) [Glycopyrrolate] | −0.1913 | –
32 | CCOc1ccc(Cc2nccc3cc(OCC)c(OCC)cc23)cc1OCC [Ethaverine hydrochloride] | 0.453 | –
33 | Oc1cc(O)c2c(c1)O[C@H](c1ccc(O)c(O)c1)[C@H](O)C2 [Epicatechin-(−)] | −0.411 | –
34 | NCc1ccccc1CC(=O)N[C@@H]1C(=O)N2C(C(=O)O)=C(CSc3nnnn3CC(=O)O)CS[C@H]12 [Ceforanide] | −0.5532 | –
35 | O=C(O)c1cccnc1Nc1cccc(C(F)(F)F)c1 [Niflumic acid] | 0.5856 | –
36 | CC(=O)O[C@H]1C[C@@H]2CC[C@@H]3[C@H](CC[C@@]4(C)[C@H]3C[C@H]([N+]3(C)CCCCC3)[C@@H]4OC(C)=O)[C@@]2(C)C[C@@H]1[N+]1(C)CCCCC1 [Pancuronium bromide] | 0.1543 | –
37 | C[C@]12CC[C@H]3C(=CCc4cc(O)ccc43)[C@@H]1CCC2=O [Equilin] | 0.9352 | –
38 | COC(=O)[C@H]1[C@H]2C[C@H]3c4[nH]c5ccccc5c4CCN3C[C@H]2CC[C@@H]1O [Rauwolscine hydrochloride] | 1.384 | –
39 | O=C(O)Cc1ccc(-c2ccccc2)cc1 [Felbinac] | −0.0788 | –
40 | N[C@@H](Cc1cc(I)c(Oc2cc(I)c(O)c(I)c2)c(I)c1)C(=O)O [Thyroxine (L)] | – | −0.8478
41 | Cl.Cl.c1ccc2c3c([nH]c2c1)C1C2CCC(C4CCCNC42)N1CC3 (centres unmarked) [Nitrarine dihydrochloride] | – | 0.3022
42 | C=CCN1CC[C@]23c4c5ccc(O)c4O[C@H]2C(=O)CC[C@@]3(O)[C@H]1C5 [Naloxone hydrochloride] | 0.84 | –
43 | Cc1cn([C@H]2C[C@H](N=[N+]=[N-])[C@@H](CO)O2)c(=O)[nH]c1=O [Zidovudine, AZT] | −0.8478 | –
44 | C[n+]1cc2c3c(ccc2c2ccc4cc5c(cc4c21)OCO5)OCO3 [Sanguinarine] | – | −1.558
45 | Nc1ccc(S(N)(=O)=O)cc1 [Sulfanilamide] | −0.4325 | –
46 | CC(=O)[C@@]1(O)CC[C@H]2[C@@H]3C[C@H](C)C4=CC(=O)C=C[C@]4(C)[C@@]3(F)[C@@H](O)C[C@@]21C [Fluorometholone] | −0.9741 | –
47 | c1ccc2c(c1)CCCc1cc(NCCN3CCOCC3)nnc1-2 [SR-95639A] | – | −0.4139
48 | CCOC(=O)OC(C)OC(=O)[C@@H]1N2C(=O)[C@@H](NC(=O)[C@H](N)c3ccccc3)[C@H]2SC1(C)C (some centres unmarked) [Bacampicillin hydrochloride] | 0.3231 | –
49 | CC[C@H]1OC(=O)[C@H](C)[C@@H](O[C@H]2C[C@@](C)(OC)[C@@H](O)[C@H](C)O2)[C@H](C)[C@@H](O[C@@H]2O[C@H](C)C[C@H](N(C)C)[C@H]2O)[C@](C)(O)C[C@@H](C)/C(=N\OCOCCOC)[C@H](C)[C@@H](O)[C@]1(C)O [Roxithromycin] | 0.3241 | –
50 | C[C@@H]1NC(=O)NC1=O [Methylhydantoin-5-(L)] | – | 1.101
51 | CN(C)CCCN1c2ccccc2Sc2ccccc21 [Promazine hydrochloride] | −1.845 | –
52 | O=C1CN(/N=C/c2ccc(-c3ccc([N+](=O)[O-])cc3)o2)C(O)=N1 [Dantrolene sodium salt] | 1.306 | –
53 | CCN(CC)C(=O)c1ccc(O)c(OC)c1 [Ethamivan] | 1.211 | –
